Reference: patent publication EP4624466A1, “DEGRADER FOR DECOMPOSING CMET PROTEIN, AND PHARMACEUTICAL COMPOSITION COMPRISING SAME” (Innocure Therapeutics, Inc., priority 2022, dated 2024)
Read-outs that look alike come from different tables or passages of the source.

How the values were obtained:
[1] = tested on: EBC-1; assay: Cell viability / antiproliferative assay (WST-8), EBC-1; format: cell-based, human; conditions: read-out: EBC-1 IC50
Description: (§2) c-MET overexpressing human gastric cancer cell lines [MKN45] and [SNU638] were cultured in RPMI medium with 10% fetal bovine serum, penicillin (100U/ml), and streptomycin (100mg/ml), and c-MET exon 14 skipping mutant human gastric cancer cell lines [Hs746T] were cultured in DMEM media. The c-MET overexpressing human lung cancer cell line EBC-1 was cultured in MEM media with the addition of 10% fetal bovine serum, penicillin (100U/ml), and streptomycin (100mg/ml). […] The compound synthesized in accordance with the present invention was prepared with a raw material solution of 10 mM dissolved in DMSO (dimethyl sulfoxide), and was sequentially diluted and processed.
(§3) In order to observe the inhibitory activity on cell growth, cells were dispensed in a 96-well plate at a concentration of 5,000 cells/well, and then treated with the compound prepared at various concentrations for 72 hours. The viability of the cells was calculated using GraphicPad Prism 8.0 software by adding 10 ml per well of WST-8 (water soluble tetrazolium salt) sample, which reacts with dehydrogenase present in the electron transport system of mitochondria to produce formazon, incubated for 2 hours, and measured absorbance at 450 nm.

[2] = tested on: MKN-45; assay: Cell viability / antiproliferative assay (WST-8), MKN-45; conditions: for IC50: Homo sapiens, MKN-45, 72 h, read-out: MKN-45 IC50;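 for all read-outs here: MKN-45 is a human gastric cancer line overexpressing c-MET, growth inhibition read as WST-8 formazan absorbance at 450 nm after 2 h dye incubation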
Description: as §2, §3

[3] = target: T1, c-MET (Homo sapiens, UniProt P08581); assay: c-MET protein degradation (Simple Western), MKN-45; format: cell-based; set-up: assess the resolution of the compound of the present invention for c-MET expressed in cells; endogenous in cells; host or cells: MKN45 (human gastric cancer); conditions: c-MET overexpressing gastric cancer cell line MKN-45, treated 24 hours; Table 2
How it was run: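 c-MET level, GAPDH-normalized and relative to 0.1% DMSO-treated cells, measured by automated capillary Western (3 µg protein) after compound exposure of 48 h for lung or 24 h for gastric cancer lines; DC50 = concentration giving 50% reduction.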

[4] = tested on: SNU-638; assay: Cell viability / antiproliferative assay (WST-8), SNU-638; format: cell-based, human; conditions: read-out: SNU-638 IC50
Description: as §2, §3

[5] = target: T1, c-MET; assay: c-MET protein degradation (Simple Western), SNU-638; format: cell-based; set-up: assess the resolution of the compound of the present invention for c-MET expressed in cells; endogenous in cells; host or cells: SNU638 (human gastric cancer); conditions: c-MET overexpressing gastric cancer cell line SNU-638, treated 24 hours
Description: (§1) In order to assess the resolution of the compound of the present invention for c-MET expressed in cells, cells were dispensed in a 12-well plate at a concentration of 2 × 10^5 cells/well, and then gastric cancer cell lines were treated with samples for 24 hours and lung cancer cell lines were treated for 48 hours. Cell lysates were collected using a scraper on ice, centrifuged at 4°C15,000 rpm for 30 min to obtain a protein-containing supernatant. Protein expression was then measured using the Simple Western Automated Western Blot System Abby instrument using 3 µg of protein for each sample. SDS and heat-induced denaturation proteins were separated by molecular weight, attached to capillary, reacted with anti-c-MET or anti-GAPDH antibodies, which are primary antibodies, and then reacted with HRP-conjugated secondary antibodies, and analyzed the protein expression signal with compass software. Protein expression was normalized based on the expression value of GAPDH, and protein development in each sample was measured as a percentage (%) based on 100% of samples treated with 0.1% DMSO carriers, and DC50 (concentration of a compound where 50% protein inhibition is achieved) was calculated from the change in protein expression amount due to compound treatment.

[6] = target: T1, c-MET; assay: c-MET protein degradation (Simple Western), EBC-1; format: cell-based; set-up: assess the resolution of the compound of the present invention for c-MET expressed in cells; endogenous in cells; host or cells: EBC-1 (human lung cancer); conditions: c-MET overexpressing lung cancer cell line EBC-1, treated 48 hours; Table 2
Description: as §1

[7] = Homo sapiens, SNU-638 cells, 72 hours, WST-8, Table 2
[8] = Homo sapiens, EBC-1 cells, 72 hours, WST-8, Table 2

T1 sequence (P08581 25-1390): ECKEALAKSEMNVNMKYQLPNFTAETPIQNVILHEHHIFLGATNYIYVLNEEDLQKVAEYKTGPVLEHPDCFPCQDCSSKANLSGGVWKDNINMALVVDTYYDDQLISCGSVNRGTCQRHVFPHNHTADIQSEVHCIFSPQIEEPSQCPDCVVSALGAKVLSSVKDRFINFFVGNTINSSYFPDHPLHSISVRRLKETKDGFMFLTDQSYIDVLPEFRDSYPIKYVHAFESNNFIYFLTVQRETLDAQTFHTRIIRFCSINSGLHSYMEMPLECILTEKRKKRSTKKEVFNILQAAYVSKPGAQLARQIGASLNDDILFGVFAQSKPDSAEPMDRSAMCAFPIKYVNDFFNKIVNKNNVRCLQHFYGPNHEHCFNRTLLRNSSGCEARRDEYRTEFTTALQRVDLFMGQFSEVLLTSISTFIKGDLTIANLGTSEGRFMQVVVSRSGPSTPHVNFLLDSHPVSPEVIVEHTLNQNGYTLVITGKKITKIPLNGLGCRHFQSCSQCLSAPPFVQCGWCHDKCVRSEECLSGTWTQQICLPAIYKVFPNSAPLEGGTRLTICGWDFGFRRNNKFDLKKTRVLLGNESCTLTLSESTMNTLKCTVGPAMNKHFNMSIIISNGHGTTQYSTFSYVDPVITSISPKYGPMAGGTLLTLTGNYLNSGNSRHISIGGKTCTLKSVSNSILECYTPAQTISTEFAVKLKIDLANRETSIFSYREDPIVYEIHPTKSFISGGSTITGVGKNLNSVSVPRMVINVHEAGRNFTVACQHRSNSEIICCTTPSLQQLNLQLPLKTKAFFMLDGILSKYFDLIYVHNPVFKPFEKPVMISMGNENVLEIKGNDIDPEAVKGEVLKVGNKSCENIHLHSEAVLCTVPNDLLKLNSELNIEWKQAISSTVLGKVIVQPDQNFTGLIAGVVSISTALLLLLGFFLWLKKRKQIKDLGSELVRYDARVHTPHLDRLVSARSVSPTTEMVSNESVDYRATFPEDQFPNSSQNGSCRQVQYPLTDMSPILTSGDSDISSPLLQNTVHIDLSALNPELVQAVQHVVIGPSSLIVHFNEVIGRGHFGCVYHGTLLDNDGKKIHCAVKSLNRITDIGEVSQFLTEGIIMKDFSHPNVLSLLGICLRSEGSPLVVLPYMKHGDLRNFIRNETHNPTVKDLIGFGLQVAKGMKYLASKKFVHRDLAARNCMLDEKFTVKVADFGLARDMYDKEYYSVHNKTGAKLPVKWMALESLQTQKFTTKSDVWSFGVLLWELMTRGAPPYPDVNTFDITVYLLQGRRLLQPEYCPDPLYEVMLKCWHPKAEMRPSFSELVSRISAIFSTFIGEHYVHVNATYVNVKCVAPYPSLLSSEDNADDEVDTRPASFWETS

Cc1nn(C2CCC(=O)NC2=O)c(=O)c2ccc(N3CCN(C(=O)C4CN(CC(=O)N5CCC(COc6cnc(-c7cccc(Cn8nc(-c9cccc(C#N)c9)ccc8=O)c7)nc6)CC5)C4)CC3)cc12 (stereo not shown) [ICT-0001257]
IC50 ([1]; Homo sapiens, EBC-1, 72 h): < 100 nM | IC50 [2]: < 100 nM | DC50 [3]: < 100 nM

N#Cc1cccc(-c2ccc(=O)n(Cc3cccc(-c4ncc(OCC5CCN(CC(=O)N6CCN(CC7CCN(c8ccc(NC9CCC(=O)NC9=O)cc8F)CC7)CC6)CC5)cn4)c3)n2)c1 (stereo not shown) [ICT-0001468, 3-(1-{[3-(5-{[1-(2-{4-[(1-{4-[(2,6-dioxopiperidin-3-yl)amino]-2-fluorophenyl}piperidine-4-yl)methyl]piperazine-1-yl}-2-oxoethyl)piperidine-4-yl]methoxy}pyrimidine-2-yl)phenyl]methyl}-6-oxo-1,6-dihydropyridazine-3-yl)benzonitrile]
IC50 [4, 7]: < 100 nM | IC50 [1, 8]: < 100 nM | DC50 ([5]; Table 2): 100 to 1000 nM | DC50 [6]: < 100 nM

N#Cc1cccc(-c2ccc(=O)n(Cc3cccc(-c4ncc(OCC5CCN(CC(=O)N6CC(N7CCN(c8ccc9c(=O)n(C%10CCC(=O)NC%10=O)ncc9c8)CC7)C6)CC5)cn4)c3)n2)c1 (stereo not shown) [ICT-0001232]
IC50 ([1]; Homo sapiens, EBC-1, 72 h): < 100 nM | DC50 ([5]; Table 2): < 100 nM | IC50 [2]: < 100 nM | DC50 [3]: < 100 nM | DC50 [6]: < 100 nM

N#Cc1cccc(-c2ccc(=O)n(Cc3cccc(-c4ncc(OCC5CCN(c6ccc(NC7CCC(=O)NC7=O)cc6F)CC5)cn4)c3)n2)c1 (stereo not shown) [ICT-0001383]
IC50 ([4]; Homo sapiens, SNU-638, 72 h): < 100 nM | IC50 ([1]; Homo sapiens, EBC-1, 72 h): < 100 nM | DC50 ([5]; Table 2): < 100 nM | DC50 [6]: < 100 nM

Cn1cc(-c2cnc3c(nnn3C[C@@H]3CN(c4ncc(-c5ccc(CN6CCN(c7ccc(NC8CCC(=O)NC8=O)cc7F)CC6)cc5)cn4)CCO3)n2)cn1 (stereo partly drawn) [ICT-0001403, 3-((3-fluoro-4-(4-(4-(2-((S)-2-((5-(1-methyl-1H-pyrazole-4-yl)-1H-[1,2,3]triazolo[4,5-b]pyrazine-1-yl)methyl)morpholino)pyrimidine-5-yl)benzyl)piperazine-1-yl)phenyl)amino)piperidine-2,6-dione]
IC50 ([4]; Homo sapiens, SNU-638 cells, 72 hours, WST-8, Table 1): < 100 nM | IC50 ([1]; Homo sapiens, EBC-1 cells, 72 hours, WST-8, Table 1): < 100 nM

N#Cc1cccc(-c2ccc(=O)n(Cc3cccc(-c4ncc(OCC5CCN(CC(=O)N6CCC(CN7CCN(c8ccc(NC9CCC(=O)NC9=O)cc8F)CC7)CC6)CC5)cn4)c3)n2)c1 (stereo not shown) [ICT-0001447, 3-(1-{[3-(5-{[1-(2-{4-[(4-{4-[(2,6-dioxopiperidin-3-yl)amino]-2-fluorophenyl}piperazine-1-yl)methyl]piperidine-1-yl}-2-oxoethyl)piperidine-4-yl]methoxy}pyrimidine-2-yl)phenyl]methyl}-6-oxo-1,6-dihydropyridazine-3-yl)benzonitrile]
IC50 [4, 7]: < 100 nM | IC50 [1, 8]: < 100 nM | DC50 ([5]; Table 2): 100 to 1000 nM | DC50 [6]: < 100 nM

N#Cc1cccc(-c2ccc(=O)n(Cc3cccc(-c4ncc(OCC5CCN(C(=O)CN6CCN(c7ccc(NC8CCC(=O)NC8=O)cc7F)CC6)CC5)cn4)c3)n2)c1 (stereo not shown) [ICT-0001494]
IC50 ([4]; Homo sapiens, SNU-638, 72 h): < 100 nM | IC50 ([1]; Homo sapiens, EBC-1, 72 h): < 100 nM | DC50 ([5]; Table 2): < 100 nM | DC50 [6]: < 100 nM

N#Cc1cccc(-c2ccc(=O)n(Cc3cccc(-c4ncc(OCC5CCN(CCN6CCN(c7ccc(NC8CCC(=O)NC8=O)cc7F)CC6)CC5)cn4)c3)n2)c1 (stereo not shown) [ICT-0001433, 3-(1-(3-(5-((1-(1-(2-(4-((2,6-dioxopiperidine-3-yl)amino)-2-fluorophenyl)piperazine-1-il)ethyl)piperidine-4-il)methoxy)pyrimidine-2-yl)benzyl)6-oxo-1,6-dihydropyridazine-3-yl)benzonitrile]
IC50 ([4]; Homo sapiens, SNU-638, 72 h): < 100 nM | IC50 ([1]; Homo sapiens, EBC-1, 72 h): < 100 nM | DC50 ([5]; Table 2): < 100 nM | DC50 [6]: < 100 nM

N#Cc1cccc(-c2ccc(=O)n(Cc3cccc(-c4ncc(-c5cccc(CN6CCC(CN7CCN(c8ccc(NC9CCC(=O)NC9=O)cc8F)CC7)CC6)c5)cn4)c3)n2)c1 (stereo not shown) [ICT-0001450]
IC50 ([4]; Homo sapiens, SNU-638, 72 h): < 100 nM | IC50 ([1]; Homo sapiens, EBC-1, 72 h): < 100 nM | DC50 [6]: < 100 nM

N#Cc1cccc(-c2ccc(=O)n(Cc3cccc(-c4ncc(OCC5CCN(CCN6CCN(c7ccc8c(=O)n(C9CCC(=O)NC9=O)ncc8c7)CC6)CC5)cn4)c3)n2)c1 (stereo not shown) [ICT-0001276, 3-(1-{[3-(5-{[1-(2-{4-[2-(2,6-dioxopiperidin-3-yl)-1-oxo-1,2-dihydropetalazine-6-yl]piperazine-1-il}ethyl)piperidine-4-il]methoxy}pyrimidine-2-yl)phenyl]methyl}-6-oxo-1,6-dihydropyridazine-3-yl)benzonitrile]
IC50 ([4]; Homo sapiens, SNU-638, 72 h): < 100 nM | IC50 [2]: < 100 nM | DC50 [3]: < 100 nM | DC50 [6]: > 1000 nM

N#Cc1cccc(-c2ccc(=O)n(Cc3cccc(-c4ncc(OCC5CCN(CC6CN(c7ccc(NC8CCC(=O)NC8=O)cc7F)C6)CC5)cn4)c3)n2)c1 (stereo not shown) [ICT-0001425]
IC50 ([4]; SNU-638 cells, 72 hours, WST-8, Table 2): < 100 nM | IC50 ([1]; EBC-1 cells, 72 hours, WST-8, Table 2): < 100 nM | DC50 ([5]; Table 2): < 100 nM | DC50 [6]: < 100 nM

N#Cc1cccc(-c2ccc(=O)n(Cc3cccc(-c4ncc(OCC5CCN(C(=O)CN6CCN(c7ccc8c(=O)n(C9CCC(=O)NC9=O)ncc8c7)CC6)CC5)cn4)c3)n2)c1 (stereo not shown) [ICT-0000979, 3-(1-{[3-(5-{[1-(2-{4-[2-(2,6-dioxopiperidine-3-yl)-1-oxo-1,2-dihydrophthalazine-6-yl]piperazine-1-day}acetyl)piperidine-4-yl]methoxy}pyrimidine-2-yl)phenyl]methyl}-6-oxo-1,6-dihydropyridazine-3-yl)benzonitrile]
IC50 ([4]; Homo sapiens, SNU-638, 72 h): 100 to 1000 nM | DC50 ([5]; Table 2): 100 to 1000 nM | MKN-45 IC50 ([2]; MKN-45 cells, 72 hours, WST-8, Table 2): A. | DC50 [3]: < 100 nM

Cc1nn(C2CCC(=O)NC2=O)c(=O)c2cc(N3CCN(CCN4CCC(COc5cnc(-c6cccc(Cn7nc(-c8cccc(C#N)c8)ccc7=O)c6)nc5)CC4)CC3)ccc12 (stereo not shown) [ICT-0001278, 3-(1-{[3-(5-{[1-(2-{4-[3-(2,6-dioxopiperidin-3-yl)-1-methyl-4-oxo-3,4-dihydropthalazine-6-yl]piperazine-1-yl}ethyl)piperidine-4-day]methoxy}pyrimidine-2-yl)phenyl]methyl}6-oxo-1,6-dihydropyridazine-3-yl)benzonitrile]
IC50 [2]: < 100 nM | DC50 [6]: > 1000 nM

Cc1nn(C2CCC(=O)NC2=O)c(=O)c2cc(N3CCN(c4ccc(NCC(=O)N5CCC(COc6cnc(-c7cccc(Cn8nc(-c9cccc(C#N)c9)ccc8=O)c7)nc6)CC5)cc4)CC3)ccc12 (stereo not shown) [ICT-0001262, 3-(1-(3-(5-((1-((4-(4-(3-(2,6-dioxopiperidin-3-yl)-1-methyl-4-oxo-3,4-dihydropthalazine-6-yl)piperazine-1-yl)phenyl)glycy)piperidine-4-il)methoxy)pyrimidine-2-yl)benzyl)6-oxo-1,6-dihydropyridazine-3-yl)benzonitrile]
IC50 ([1]; Homo sapiens, EBC-1, 72 h): < 100 nM | IC50 [2]: < 100 nM | DC50 [3]: < 100 nM

N#Cc1cccc(-c2ccc(=O)n(Cc3cccc(-c4ncc(-c5cccc(CN6CCN(c7ccc(C8CCC(=O)NC8=O)cn7)CC6)c5)cn4)c3)n2)c1 (stereo not shown) [ICT-0001449]
IC50 ([4]; Homo sapiens, SNU-638, 72 h): < 100 nM | IC50 ([1]; Homo sapiens, EBC-1, 72 h): < 100 nM | DC50 ([5]; Table 2): > 1000 nM | DC50 [6]: < 100 nM

N#Cc1cccc(-c2ccc(=O)n(Cc3cccc(-c4ncc(-c5cccc(CN6CCN(c7ccc(NC8CCC(=O)NC8=O)cc7F)CC6)c5)cn4)c3)n2)c1 (stereo not shown) [ICT-0001434]
IC50 ([4]; Homo sapiens, SNU-638, 72 h): < 100 nM | IC50 ([1]; Homo sapiens, EBC-1, 72 h): < 100 nM | DC50 ([5]; Table 2): > 1000 nM | DC50 [6]: < 100 nM

Cn1cc(-c2cnc3c(nnn3C[C@@H]3CN(c4ncc(-c5ccc(CN6CCN(CC(=O)N7CCN(c8ccc(NC9CCC(=O)NC9=O)cc8F)CC7)CC6)cc5)cn4)CCO3)n2)cn1 (stereo partly shown) [ICT-0001379]
IC50 ([4]; SNU-638 cells, 72 hours, WST-8, Table 1): < 100 nM | IC50 ([1]; EBC-1 cells, 72 hours, WST-8, Table 1): < 100 nM | DC50 ([5]; Table 1): < 100 nM
